Test results published in patent US20220204449A1, “BIASED AGONISTS OF OPIOID RECEPTORS” (ILDONG PHARMACEUTICAL CO., LTD., priority 2020, published 2022).
Entries after “also recorded” stand apart in the source; their conditions may differ. Where two headings read alike, the source gives them in different places.

How the values were obtained:
Format in all cases: cell-based
[1] = biological target: T1, human μ-opioid receptor, OPRM (Homo sapiens, UniProt P35372); experiment: Dominant assay: cAMP assay with/without irreversible antagonist β-FNA, OPRM cell line; settings: for maximal response on decreasing receptor population (dominant tendency), in words: OPRM cell lines, β-FNA
T1 construct: host or cells: HEK-293 overexpressing β-arrestin2 fused to a β-galactosidase fragment
T1 sequence (P35372 whole entry, the tested form may be a part): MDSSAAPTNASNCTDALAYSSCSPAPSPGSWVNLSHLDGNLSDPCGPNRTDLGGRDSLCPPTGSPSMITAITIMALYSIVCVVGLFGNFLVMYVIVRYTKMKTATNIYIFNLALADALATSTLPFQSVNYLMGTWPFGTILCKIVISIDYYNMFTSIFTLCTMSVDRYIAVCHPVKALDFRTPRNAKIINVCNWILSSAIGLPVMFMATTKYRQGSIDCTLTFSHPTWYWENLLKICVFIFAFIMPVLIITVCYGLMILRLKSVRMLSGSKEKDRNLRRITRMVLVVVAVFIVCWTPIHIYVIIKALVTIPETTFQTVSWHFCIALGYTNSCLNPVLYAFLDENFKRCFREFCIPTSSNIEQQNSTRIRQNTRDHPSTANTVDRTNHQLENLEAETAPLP
Text: (§1) To confirm the agonist's efficacy in a nature-like system, we need inactivation of target receptors on the cell membrane. Most cell lines have an abundant target receptor population (also known as spare receptors). Therefore, agonists have more opportunity to constitute agonist-receptor conformation. In this environment, not only full agonists but also partial agonists can reach maximal response.
(§2) If the partial agonist is selected as a full agonist, translational in vivo research will likely fail.
(§3) Non-competitive, irreversible antagonists can be applicable to judge the pharmacological character of agonists because they permanently decrease the receptor population in the cell line system. β-FNA or β-CNA is used as a non-competitive and irreversible antagonist for OPRM, OPRD. Before cAMP assay, cells were incubated with β-FNA or β-CNA for 40 minutes. Afterwards, the procedure is the same.
(§4) If a partial agonist compound acts as a full agonist due to receptor population (pseudo full agonist), it cannot sustain maximal response with reduced receptor population. However, a full agonist compound maintains their maximal response even though increased EC50.

[2] = biological target: T1, human μ-opioid receptor, OPRM; experiment: PathHunter β-arrestin 2 assay, OPRM cell line; settings: for OPRM β-ARR2 Emax (%): Example 3, Tables 5-7; for β-arrestin pathway activation / bARR2 recruitment, in words: OPRM
Text: (§5) Human embryonic kidney 293 (HEK-293) cells which transfected overexpress (3-arrestin2 fused β-galactosidase fragment were purchased from DiscoverX. Human OPRM1 gene (NM 000914.3, encoding human μ-opioid receptor, OPRM) and Human OPRD1 gene (NM 000911.3, encoding human δ-opioid receptor, OPRD) were fused to a pCMV-ProLink plasmid which contains complementary β-galactosidase fragment purchased from DiscoverX. To generate human OPRM1 or OPRD1 expression cell lines, HEK-293 cells were transfected to prepared plasmid and grown in DMEM medium with 10% fetal bovine serum, 150 μg/mL Hygromycin B and 500 μg/mL G418.
(§6) The PathHunter enzyme assay was performed to measure the agonist's capability of β-arrestin 2 pathway activation. When agonists bind to G protein-coupled receptor (GPCR), the receptor pathway is sequentially activated from G protein to β-arrestin 2 recruitment.
(§7) Because […] β-arrestin 2 and C-terminal of GPCR have a fragment of β-galactosidase, recruitment of β-arrestin 2 to GPCR forms the whole β-galactosidase. The functionality of the whole β-galactosidase is detected by chemiluminescence (FlexStation3, Molecular Devices).
(§8) cAMP and β-arrestin assays described above were conducted to decide whether candidate compounds were μ- and/or δ-opioid receptor bias agonists for the G-protein pathway. All assays produced the concentration-response curve, and the curve data was validated by a quality control factor named Z′ factor. Because half-maximal effect concentration (EC50) depends on the population of receptors, the maximal asymptote of the concentration curve was used. Efficacy data of candidates was normalized by comparison to reference agonists DAMGO and SNC80 for OPRM and OPRD.

[3] = biological target: T2, human δ-opioid receptor, OPRD (Homo sapiens, UniProt P41143); experiment: PathHunter β-arrestin 2 assay, OPRD cell line; settings: for β-arrestin pathway activation / bARR2 recruitment, in words: OPRD
T2 construct: host or cells: HEK-293 overexpressing β-arrestin2 fused to a β-galactosidase fragment
T2 sequence (P41143 whole entry, the tested form may be a part): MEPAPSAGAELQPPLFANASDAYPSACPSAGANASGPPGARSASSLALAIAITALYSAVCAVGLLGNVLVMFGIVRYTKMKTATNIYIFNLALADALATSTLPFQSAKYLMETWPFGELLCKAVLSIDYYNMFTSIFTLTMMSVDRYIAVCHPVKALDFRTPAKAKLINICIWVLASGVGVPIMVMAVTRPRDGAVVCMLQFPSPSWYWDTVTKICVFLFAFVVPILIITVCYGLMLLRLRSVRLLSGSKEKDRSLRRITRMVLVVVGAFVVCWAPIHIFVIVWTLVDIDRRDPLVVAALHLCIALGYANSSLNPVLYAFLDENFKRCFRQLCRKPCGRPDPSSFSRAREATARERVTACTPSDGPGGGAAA
Text: as §5, §6, §7, §8

[4] = biological target: T2, human δ-opioid receptor, OPRD; experiment: Dominant assay: cAMP assay with/without irreversible antagonist β-CNA, OPRD cell line
Text: as §1, §2, §3, §4

[5] = addition of β-FNA, Example 3, Tables 5-7, read-out: OPRM Gi β-FNA (+) EC50
[6] = addition of β-FNA, Example 3, Tables 5-7, read-out: OPRM Gi β-FNA (+) Emax (%)
[7] = addition of β-FNA, repeated dominant assay, Example 4, Tables 8-10, read-out: OPRM Gi β-FNA (+) EC50
[8] = addition of β-FNA, repeated dominant assay, Example 4, Tables 8-10, read-out: OPRM Gi β-FNA (+) Emax (%)
[9] = no addition of β-FNA, Example 3, Tables 5-7, read-out: OPRM Gi β-FNA (−) EC50
[10] = no addition of β-FNA, Example 3, Tables 5-7, read-out: OPRM Gi β-FNA (−) Emax (%)
[11] = no addition of β-FNA, repeated dominant assay, Example 4, Tables 8-10, read-out: OPRM Gi β-FNA (−) EC50
[12] = no addition of β-FNA, repeated dominant assay, Example 4, Tables 8-10, read-out: OPRM Gi β-FNA (−) Emax (%)
[13] = addition of β-CNA, Example 3, Tables 5-7, read-out: OPRD Gi β-CNA (+) EC50
[14] = addition of β-CNA, Example 3, Tables 5-7, read-out: OPRD Gi β-CNA (+) Emax (%)
[15] = addition of β-CNA, repeated dominant assay, Example 4, Tables 8-10, read-out: OPRD Gi β-CNA (+) EC50
[16] = addition of β-CNA, repeated dominant assay, Example 4, Tables 8-10, read-out: OPRD Gi β-CNA (+) Emax (%)
[17] = no addition of β-CNA, Example 3, Tables 5-7
[18] = no addition of β-CNA, Example 3, Tables 5-7, read-out: OPRD Gi β-CNA (−) EC50
[19] = no addition of β-CNA, repeated dominant assay, Example 4, Tables 8-10, read-out: OPRD Gi β-CNA (−) EC50
[20] = no addition of β-CNA, repeated dominant assay, Example 4, Tables 8-10, read-out: OPRD Gi β-CNA (−) Emax (%)

| Compound | maximal response on decreasing receptor population (dominant tendency), in words [1] | OPRM β-ARR2 Emax (%) [2] [%] | β-arrestin pathway activation / bARR2 recruitment, in words [2] | β-arrestin pathway activation / bARR2 recruitment, in words [3] | EC50 [1, 5] [µM] | Emax [1, 6] [%] | EC50 [1, 7] [µM] | Emax [1, 8] [%] | EC50 [1, 9] [µM] | Emax [1, 10] [%] | EC50 [1, 11] [µM] | Emax [1, 12] [%] | EC50 [4, 13] [µM] | Emax [4, 14] [%] | EC50 [4, 15] [µM] | Emax [4, 16] [%] | OPRD Gi β-CNA (−) Emax (%) [4, 17] [%] | EC50 [4, 18] [µM] | EC50 [4, 19] [µM] | Emax [4, 20] [%] | other results |
| --- | --- | --- | --- | --- | --- | --- | --- | --- | --- | --- | --- | --- | --- | --- | --- | --- | --- | --- | --- | --- | --- |
| C[C@@H](NC(=O)[C@@H](N)Cc1ccc(O)cc1)C(=O)NCC(=O)N(C)[C@@H](Cc1ccccc1)C(=O)NCCO [DAMGO, [D-Ala^2, NMe-Phe^4, Gly-ol^5]-enkephalin, reference compound] | full agonist |  |  |  |  |  |  |  |  |  |  |  |  |  |  |  |  |  |  |  |  |
| CN1CCc2cc(C(CNC(=O)Nc3ccc(F)cc3)N(C)C)ccc21 (single isomer, unassigned) [Compound 6] | resistant to decreasing spare receptors; also recorded: showed efficacy dominance on both types of opioid receptors; also recorded: resistant to decreasing spare receptor-induced tendency; also recorded: maintained a higher maximal response as compared to compound 2 | 8.5 | lower bARR2 recruitment as compared to morphine | lower bARR2 recruitment as compared to morphine | 2.48 | 77 | 8.49 | 90.1 | 0.519 | 106 | 1.86 | 100 | 48.3 | 119 | 13.5 | 81.4 | 128.1 | 8.91 | 4.32 | 102 | Emax ([3]; Example 3, Tables 5-7, read-out: OPRD β-ARR2 Emax (%)): 10.5%; maximal response on decreasing receptor population (dominant tendency), in words ([4]; OPRD cell lines, β-CNA): resistant to decreasing spare receptors; also recorded: showed efficacy dominance on both types of opioid receptors; also recorded: resistant to decreasing spare receptor-induced tendency; also recorded: maintained a higher maximal response as compared to compound 2 |
| Cc1ccccc1NC(=O)NCC(c1ccc2c(c1)CCO2)N(C)C (single isomer, unassigned) [Compound 8] |  | 5.4 | lower bARR2 recruitment as compared to morphine | lower bARR2 recruitment as compared to morphine | 14.2 | 43.2 | 7.78 | 77.5 | 0.734 | 84.7 | 0.219 | 91.6 | 35.7 | 42.7 | 8.69 | 42.7 | 95.54 | 15 | 16.9 |  | OPRD β-ARR2 Emax (%) ([3]; Example 3, Tables 5-7): 5.1%; OPRD Gi β-CNA (−) Emax (%) ([4]; no addition of β-CNA, repeated dominant assay, Example 4, Tables 8-10): 102.7% |
| CN(C)C(CNC(=O)Cc1ccc2c(c1)OCCO2)c1ccccc1 (single isomer, unassigned) [Compound 4] | better efficacy than racemic compound 1 | 4.8 | lower bARR2 recruitment as compared to morphine | lower bARR2 recruitment as compared to morphine | 10.9 | 24.6 | 12 |  | 20 | 82.8 | 9.4 | 100 |  |  | 10 |  | 20.59 |  | 8.65 | 100 | OPRD β-ARR2 Emax (%) ([3]; Example 3, Tables 5-7): 2.8%; OPRM Gi β-FNA (+) Emax (%) ([1]; addition of β-FNA, repeated dominant assay, Example 4, Tables 8-10): 45.02%; OPRD Gi β-CNA (+) Emax (%) ([4]; addition of β-CNA, Example 3, Tables 5-7): 17.23%; OPRD Gi β-CNA (+) Emax (%) ([4]; addition of β-CNA, repeated dominant assay, Example 4, Tables 8-10): 108.1% |
